Laboratory results reported in PubChem BioAssay (NCI).
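Dose response: 5 concentrations. Exposure: 48 h. Format: 96-well plates. Endpoint: linear interpolation; highest concentration if not reached. GI50: concentration for 50% inhibition of growth. TGI marks complete inhibition of growth.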

What was measured:
Experiment in all cases: NCI anticancer screen, dose series, 48 h
BT-549 breast = test system: BT-549 breast
MDA-MB-435 = test system: MDA-MB-435
T-47D breast = test system: T-47D breast
PC-3 prostate = test system: PC-3 prostate
HS 578T breast = test system: HS 578T breast
DLD-1 colon = test system: DLD-1 colon
DMS 273 small cell lung = test system: DMS 273 small cell lung
M19-MEL melanoma = test system: M19-MEL melanoma
SNB-78 CNS = test system: SNB-78 CNS

Structure (SMILES)	GI50 (BT-549 breast) [µM]	TGI (BT-549 breast) [µM]	GI50 (MDA-MB-435) [µM]	TGI (MDA-MB-435) [µM]	GI50 (T-47D breast) [µM]	TGI (T-47D breast) [µM]	GI50 (PC-3 prostate) [µM]	TGI (PC-3 prostate) [µM]	GI50 (HS 578T breast) [µM]	TGI (HS 578T breast) [µM]	TGI (DLD-1 colon) [µM]	TGI (DMS 273 small cell lung) [µM]	TGI (M19-MEL melanoma) [µM]	TGI (SNB-78 CNS) [µM]
COC(=O)[C@H](C[C@H](Cc1ccccc1)NC(=O)c1csc([C@@H](C[C@H](C(C)C)N(C)C(=O)[C@@H](NC(=O)[C@H]2CCCCN2C)C(C)C)OC(C)=O)n1)NC(=O)OCc1ccccc1	< 0.0009	0.0689	< 0.0009	< 0.0009	< 0.0009	> 9	< 0.0009	> 9	< 0.0009	> 4.93				
COc1ccc(-c2n/c(=C\c3c(O)[nH]c4ccc(OC)cc34)cc3c2=Nc2ccccc2-3)cc1					11.8	40.5	22.1	> 100	1.94	4.82				
COc1ccc2c(c1)cn1c3ccc(O)cc3nc(N)c21	4.72	22.7	0.0217	0.0749	2.34	10.4	0.761	13.4	1.48	33.4				
Oc1cccc2ccc(N/N=C/c3cc(CN4CCCCC4)c(O)c4ncccc34)nc12	0.0574	6.02	0.0444	1.73	0.192	14.9	0.0417	1.86	0.147	29.4				
NCCn1c(=O)[nH]c(=O)[nH]c1=S	> 100	> 100	> 100	> 100	> 100	> 100	> 100	> 100	> 100	> 100				
C[C@@H]1C[C@H]2CC[C@H](O2)[C@H](C)C(=O)O[C@@H](C)C[C@@H]2CC[C@@H](O2)[C@@H](C)C(=O)O[C@H](C)C[C@H]2CC[C@H](O2)[C@H](C)C(=O)O[C@@H](C)C[C@@H]2CC[C@@H](O2)[C@@H](C)C(=O)O1		> 100		> 49.3		0.857		2.46		54.3				
O=C1c2cccnc2C(=O)c2nc3cc(N4CCN(C5CC5)CC4)ccc3nc21	1.04	2.38	0.169	0.328	2.16	6.34	1.97	23.2	0.37	3.18				
Cc1ccc(-c2cn3ccnc3c(-c3ccc(Cl)cc3)n2)cc1	2.3	65.3	< 0.0126	0.185	8.12	> 58.5	0.356	> 100	0.115	9.39				
CC1OC(O[C@@H]2OC=C(C=O)[C@@]3(O)CC[C@H](C)[C@@H]23)C(O)C(O)C1O (stereo partly specified)		> 100		> 100		> 100		> 100		> 100				
O=C1CC(c2ccc(O)cc2)C2(O1)C(=O)OC(C(O)CO)C2O (stereo unspecified)		> 100		> 100		> 100		> 100		> 100				
CC[C@@H](C(=O)O)C1CC[C@H](C)C([C@@H](C)[C@H](O)[C@H](C)C(=O)[C@H](CC)C2O[C@]3(C=C[C@@H](O)[C@]4(CC[C@@](C)(C5CC[C@](O)(CC)[C@H](C)O5)O4)O3)[C@H](C)C[C@@H]2C)O1 (stereo partly specified)	0.184	3.19	1.04	2.77	0.371	16	0.0657	45.8	0.0767	12.4				
CN(C)CCNc1c2c(c(NCCN(C)C)c3[nH]ccc13)C(=O)c1ccccc1C2=O	1.08	3.04	1.54	5.14	2.87	> 21.2	0.609	11.1	2.74	9.26				
Cn1cccc1-c1cc(-c2cccs2)nc(N)c1C#N	> 100	> 100	> 100	> 100	> 100	> 100	> 100	> 100	> 100	> 100				
COc1ccc(/C(C#N)=C/c2ccccc2OC)cc1	5.64	> 100	1.95	5.72	10	> 100		> 100	14.3	> 100				
CCCCCCCCCCC(C(=O)O)C1(C(=O)O)CCC(=O)O1 (stereo unspecified)		> 100		> 100		> 100		> 100		> 100				
Cn1cc(-c2ccc3occ(-c4cccc(-c5ccncc5)c4)c3n2)cn1	1.22	17.1	0.176	0.525			0.961	> 100	0.377	6.18				
Cc1ccc(N=Nc2c(O)c(C(=O)O)cc3ccccc23)cc1C		> 100		> 100				> 100		> 100				
COc1ccc(OC)c(/C=C2\SC(=S)NC2=O)c1			39	> 100	18.6	56.7	35	> 100	20.7	55.5				
COC(=O)[C@@]1(C)CC[C@]2(C)CC[C@]3(C)C4=CC=C5C(=CC(=O)C(O)=C5C)[C@]4(C)[C@@H](O)C[C@@]3(C)[C@@H]2C1	10.5	22.3	10.6	21.5	3.04	15.9	8.7	19	15.1	38				
COc1ccc2c(c1)/C(=C\c1c(C)nc3sccn13)C(=O)N2		> 82.9			1.98	> 67.2	0.179	> 100	0.224	15.2				
CC(CCC(=O)O)[C@H]1CCC2[C@@H]3CC[C@@H]4CC(O)CC[C@]4(C)C3CC[C@@]21C (stereo partly specified)	53.9	> 100	37.5	> 100	33.7	> 100	26.2	72.3						
CC(C)[C@H]1CO[C@]2(C)[C@@H]3CN(Cc4ccccc4)C[C@@H]3C(=O)N12											> 100	> 100	> 100	
COc1ccc(/C=C2\CCCC3=C2N=C2SC(C)=NN2C3c2ccc(OC)c(OC)c2)cc1OC (stereo unspecified)	7.37	> 100	3.27	69.3	4.57	> 100	25.8	> 100	30.4	> 100				
COc1cc(C2CC(c3ccc4c(c3)OCO4)=NN2C=O)cc(OC)c1OC (stereo unspecified)	5.21	> 100	0.26	1.13	3.34	> 100	4.92	> 100	2.43	28.5				

Structure (SMILES)	GI50 (BT-549 breast) [µM]	TGI (BT-549 breast) [µM]	GI50 (MDA-MB-435) [µM]	TGI (MDA-MB-435) [µM]	GI50 (T-47D breast) [µM]	TGI (T-47D breast) [µM]	GI50 (PC-3 prostate) [µM]	TGI (PC-3 prostate) [µM]	GI50 (HS 578T breast) [µM]	TGI (HS 578T breast) [µM]	TGI (DLD-1 colon) [µM]	TGI (DMS 273 small cell lung) [µM]	TGI (M19-MEL melanoma) [µM]	TGI (SNB-78 CNS) [µM]
O=C(/C=C/c1ccccc1)c1cc(Br)ccc1O		33		32.6		25.5		33.7		59.3				
Cc1cc(N(CCCl)CCCl)ccc1C=Nc1ccc(-c2csc(Cc3ccccc3)n2)cc1	13.4	42.4	12.4	39.9	2.82	49.2	5.66	44.2	20.3	83.7				
CC#C[C@]1(O)CC[C@H]2[C@@H]3CCC4=CC(=O)CCC4=C3[C@@H](c3ccc4c(c3)OCO4)C[C@@]21C	22.3	122	106	390	45.6	577	39.7	340	101	537				
O=C(O)/C=C\C(=O)N1C/C(=C\c2ccccc2Cl)C(=O)/C(=C/c2ccccc2Cl)C1	2.06	4.11	3.34	13.6	4.48	16.2	3.56	15.5						
NC1C[C@H](n2cc(/C=C/Br)c(=O)[nH]c2=O)C[C@@H]1CO (stereo partly specified)											> 100	> 100	> 100	
COc1cccc2c1c(C(=O)C(=O)Nc1cc(C)no1)cn2Cc1ccc(F)cc1	5.36	> 100	1.08	3.64	5.17	> 100	11	> 84.9	3.47	> 56.9				
COc1ccc(-c2nn3c(-c4cc(F)c(Cl)cc4Cl)nnc3s2)cc1	24.4	69.7	4.86	> 100	27.5	> 100	34.1	> 100	43.3	> 100				
COc1cc(OC(C)=O)cc2c(OC(C)=O)ccc(OC(C)=O)c12														> 100
O=C1/C(=C\c2c[nH]c3ccccc23)c2ccccc2N1c1c(Cl)cccc1Cl	1.6	4.07	1.77	3.57	2.01	5.62	1.35	2.96						
COc1cc2c(c(OC)c1)C1c3ccccc3NC(=O)N1CC2 (stereo unspecified)	6.24	80.7			5.59	> 100	3.89	> 100	6.3	> 100				
CCCCCCCCN=C(N)c1ccc(N2CCN(c3ccc(C(N)=NCCCCCCCC)cc3)CC2)cc1	1.41	3.82	1.25	3.23	1.63	13.5	22.7	> 50						
COc1ccc(-c2nc3sc4c(c3c(=O)[nH]2)CCCCCC4)cc1	5.4	> 33.2	0.107	0.838			> 33.2	> 33.2	1.78	> 33.2				
O=C(COc1ccc2c(=O)cc(-c3ccccc3)oc2c1)N1CCN(c2ccccc2)CC1													> 100	> 100
O=c1cc(-c2ccccc2)[nH]c2ccccc12		> 52.1			0.468	> 100	0.403	> 100	0.458	> 23.2				
OC(c1cc(-c2ccccc2)nc2ccc(Cl)cc12)C1CCCCN1 (stereo unspecified)	5.82	18.7	1.73	3.29	2.51	5.47	2.21	4.79	3.37	11.7				
CN1CCC(n2cnc(-c3ccc(F)cc3)c2-c2ccnc(NCCO)n2)CC1	> 25	> 25	11.5	> 25	> 25	> 25	> 25	> 25	> 25	> 25				
Nc1ccccc1C#C/C=C\C#Cc1cccs1	12.2	28.7	2.81	12.2	17.4	48.2	4.48	27.3	15.2	41.8				
NCCOCCOCCNc1nc(Cc2ccccc2)nc(NCCCN2CCCC2=O)n1	> 100	> 100	> 100	> 100	> 100	> 100	> 100	> 100	> 100	> 100				
CN(C)CCCNC(CC#N)CCC#N (stereo unspecified)		> 10		> 10		> 10		> 10		> 10				
CC(C)c1cc(-c2n[nH]c(=O)n2-c2ccc3c(ccn3C)c2)c(O)cc1O	1.87	44.3	< 0.0191	15.6	< 0.0287	34.5	< 0.0224	49.6	0.682	90.1				
CCCCC(CC)CN=C(N)NC(N)=NCCCCCCN=C(N)NC(N)=NCC(CC)CCCC (stereo unspecified)					2.21	4.9								
COc1ccc(-c2c3c(N)nc(-c4ccncc4)nc3nc3c2c(C)nn3-c2ccccc2)cc1	41.5	> 100	5.29	> 100	3.96	> 100	> 100	> 100	16.5	> 100				
COc1ccc(/C=C(/C#N)C(N)=O)cc1OC		> 100		> 100		> 100		> 100		> 100				
Cc1ccccc1[P+](Cc1ccccc1)(c1ccccc1)c1ccccc1	2.4	11.5	0.601	3.71			1.45	> 100	1.83	11.7				
